Data on 2 molecules can be found in ChEMBL document CHEMBL1154498, “Clinical stage EGFR inhibitors irreversibly alkylate Bmx kinase” (Bioorg Med Chem Lett, 2008).

The target in assay [1] is T1, Serine/threonine-protein kinase STK11 (Homo sapiens, UniProt Q15831).
T1 sequence (Q15831 whole entry): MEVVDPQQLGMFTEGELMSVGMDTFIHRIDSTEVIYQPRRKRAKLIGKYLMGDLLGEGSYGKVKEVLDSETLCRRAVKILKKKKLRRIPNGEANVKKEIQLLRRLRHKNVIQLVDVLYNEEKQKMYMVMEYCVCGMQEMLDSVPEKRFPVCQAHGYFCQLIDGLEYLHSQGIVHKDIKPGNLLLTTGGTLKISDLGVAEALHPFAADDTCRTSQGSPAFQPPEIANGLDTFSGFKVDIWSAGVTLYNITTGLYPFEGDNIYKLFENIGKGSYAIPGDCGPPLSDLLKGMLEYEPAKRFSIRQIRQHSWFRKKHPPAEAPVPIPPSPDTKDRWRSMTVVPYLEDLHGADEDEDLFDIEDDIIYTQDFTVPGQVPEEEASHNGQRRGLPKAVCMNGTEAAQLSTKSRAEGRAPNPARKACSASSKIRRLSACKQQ
Nature of the assay: Inhibition of Lkb1.

For assay [2], the target named is Receptor tyrosine-protein kinase erbB-2 (Homo sapiens, UniProt P04626). Nature of the assay: Inhibition of HER2.
Chain of Receptor tyrosine-protein kinase erbB-2 (P04626 whole entry): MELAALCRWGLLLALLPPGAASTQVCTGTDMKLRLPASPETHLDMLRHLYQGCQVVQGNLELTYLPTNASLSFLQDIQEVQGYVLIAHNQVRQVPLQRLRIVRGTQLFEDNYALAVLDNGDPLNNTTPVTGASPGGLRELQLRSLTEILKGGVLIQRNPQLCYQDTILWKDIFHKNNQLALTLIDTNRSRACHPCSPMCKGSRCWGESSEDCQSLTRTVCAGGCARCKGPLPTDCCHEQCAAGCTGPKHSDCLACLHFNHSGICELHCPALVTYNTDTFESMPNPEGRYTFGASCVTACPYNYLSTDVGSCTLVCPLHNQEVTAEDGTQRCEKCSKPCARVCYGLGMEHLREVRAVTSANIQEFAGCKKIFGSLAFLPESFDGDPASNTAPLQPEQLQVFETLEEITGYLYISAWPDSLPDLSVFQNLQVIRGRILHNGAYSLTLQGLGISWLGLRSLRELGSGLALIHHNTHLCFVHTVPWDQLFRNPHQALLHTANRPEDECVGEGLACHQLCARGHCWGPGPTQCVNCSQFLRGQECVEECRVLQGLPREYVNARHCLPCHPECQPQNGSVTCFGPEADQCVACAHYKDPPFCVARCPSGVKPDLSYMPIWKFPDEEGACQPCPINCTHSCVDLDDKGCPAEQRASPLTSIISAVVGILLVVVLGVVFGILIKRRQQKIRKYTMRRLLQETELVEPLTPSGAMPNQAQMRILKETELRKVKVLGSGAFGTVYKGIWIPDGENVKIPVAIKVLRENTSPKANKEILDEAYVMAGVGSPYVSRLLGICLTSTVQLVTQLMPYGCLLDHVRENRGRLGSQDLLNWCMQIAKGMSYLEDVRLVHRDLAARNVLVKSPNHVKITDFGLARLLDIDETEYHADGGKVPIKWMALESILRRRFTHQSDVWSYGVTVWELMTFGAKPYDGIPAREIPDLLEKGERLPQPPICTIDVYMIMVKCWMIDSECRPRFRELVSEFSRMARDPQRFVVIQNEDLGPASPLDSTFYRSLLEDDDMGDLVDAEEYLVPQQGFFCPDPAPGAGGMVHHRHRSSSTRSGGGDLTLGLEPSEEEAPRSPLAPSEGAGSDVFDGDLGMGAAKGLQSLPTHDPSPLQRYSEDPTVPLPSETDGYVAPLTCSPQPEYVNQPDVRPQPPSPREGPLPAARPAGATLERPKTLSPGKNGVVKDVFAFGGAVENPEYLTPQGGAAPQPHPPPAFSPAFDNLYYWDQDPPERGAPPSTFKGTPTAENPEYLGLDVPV
In assay [3] the target is Tyrosine-protein kinase BTK (Homo sapiens, UniProt Q06187). Nature of the assay: Inhibition of Btk.
Chain of Tyrosine-protein kinase BTK (Q06187 whole entry): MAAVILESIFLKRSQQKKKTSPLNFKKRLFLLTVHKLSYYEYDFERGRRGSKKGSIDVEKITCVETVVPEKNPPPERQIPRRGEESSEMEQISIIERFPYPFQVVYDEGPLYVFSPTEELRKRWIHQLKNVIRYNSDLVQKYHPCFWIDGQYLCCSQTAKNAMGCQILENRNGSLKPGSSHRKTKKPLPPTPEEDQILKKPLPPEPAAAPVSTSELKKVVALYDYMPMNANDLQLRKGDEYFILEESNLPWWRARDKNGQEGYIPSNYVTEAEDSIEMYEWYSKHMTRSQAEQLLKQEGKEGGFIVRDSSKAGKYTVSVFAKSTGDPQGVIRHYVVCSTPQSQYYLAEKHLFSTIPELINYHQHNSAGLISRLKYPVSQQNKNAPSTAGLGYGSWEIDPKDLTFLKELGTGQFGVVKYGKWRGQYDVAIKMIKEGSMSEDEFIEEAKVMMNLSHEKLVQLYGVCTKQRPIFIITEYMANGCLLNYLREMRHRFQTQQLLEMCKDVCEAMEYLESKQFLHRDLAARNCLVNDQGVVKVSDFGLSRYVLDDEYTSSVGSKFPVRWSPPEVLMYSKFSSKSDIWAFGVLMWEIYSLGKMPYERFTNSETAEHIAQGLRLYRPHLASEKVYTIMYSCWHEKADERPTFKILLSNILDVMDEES
Assay [4] deals with Tyrosine-protein kinase Blk (Homo sapiens, UniProt P51451). The assay is described as follows: Inhibition of Blk.
Chain of Tyrosine-protein kinase Blk (P51451 whole entry): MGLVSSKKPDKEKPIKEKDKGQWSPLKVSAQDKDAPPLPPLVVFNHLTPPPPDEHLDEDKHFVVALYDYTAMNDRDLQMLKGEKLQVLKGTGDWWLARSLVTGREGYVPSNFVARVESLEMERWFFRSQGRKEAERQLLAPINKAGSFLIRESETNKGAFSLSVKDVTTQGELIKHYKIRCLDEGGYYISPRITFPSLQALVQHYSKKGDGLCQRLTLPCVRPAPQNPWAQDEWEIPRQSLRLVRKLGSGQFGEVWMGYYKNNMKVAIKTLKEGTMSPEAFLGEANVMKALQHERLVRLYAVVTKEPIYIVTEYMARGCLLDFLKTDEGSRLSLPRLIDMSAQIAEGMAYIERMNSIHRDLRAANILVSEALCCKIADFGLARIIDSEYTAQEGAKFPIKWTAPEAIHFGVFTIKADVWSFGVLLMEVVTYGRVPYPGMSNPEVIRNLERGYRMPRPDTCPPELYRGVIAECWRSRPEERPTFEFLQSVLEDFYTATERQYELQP
Assay [5] deals with Receptor tyrosine-protein kinase erbB-4 (Homo sapiens, UniProt Q15303). Nature of the assay: Inhibition of HER4.
Chain of Receptor tyrosine-protein kinase erbB-4 (Q15303 whole entry): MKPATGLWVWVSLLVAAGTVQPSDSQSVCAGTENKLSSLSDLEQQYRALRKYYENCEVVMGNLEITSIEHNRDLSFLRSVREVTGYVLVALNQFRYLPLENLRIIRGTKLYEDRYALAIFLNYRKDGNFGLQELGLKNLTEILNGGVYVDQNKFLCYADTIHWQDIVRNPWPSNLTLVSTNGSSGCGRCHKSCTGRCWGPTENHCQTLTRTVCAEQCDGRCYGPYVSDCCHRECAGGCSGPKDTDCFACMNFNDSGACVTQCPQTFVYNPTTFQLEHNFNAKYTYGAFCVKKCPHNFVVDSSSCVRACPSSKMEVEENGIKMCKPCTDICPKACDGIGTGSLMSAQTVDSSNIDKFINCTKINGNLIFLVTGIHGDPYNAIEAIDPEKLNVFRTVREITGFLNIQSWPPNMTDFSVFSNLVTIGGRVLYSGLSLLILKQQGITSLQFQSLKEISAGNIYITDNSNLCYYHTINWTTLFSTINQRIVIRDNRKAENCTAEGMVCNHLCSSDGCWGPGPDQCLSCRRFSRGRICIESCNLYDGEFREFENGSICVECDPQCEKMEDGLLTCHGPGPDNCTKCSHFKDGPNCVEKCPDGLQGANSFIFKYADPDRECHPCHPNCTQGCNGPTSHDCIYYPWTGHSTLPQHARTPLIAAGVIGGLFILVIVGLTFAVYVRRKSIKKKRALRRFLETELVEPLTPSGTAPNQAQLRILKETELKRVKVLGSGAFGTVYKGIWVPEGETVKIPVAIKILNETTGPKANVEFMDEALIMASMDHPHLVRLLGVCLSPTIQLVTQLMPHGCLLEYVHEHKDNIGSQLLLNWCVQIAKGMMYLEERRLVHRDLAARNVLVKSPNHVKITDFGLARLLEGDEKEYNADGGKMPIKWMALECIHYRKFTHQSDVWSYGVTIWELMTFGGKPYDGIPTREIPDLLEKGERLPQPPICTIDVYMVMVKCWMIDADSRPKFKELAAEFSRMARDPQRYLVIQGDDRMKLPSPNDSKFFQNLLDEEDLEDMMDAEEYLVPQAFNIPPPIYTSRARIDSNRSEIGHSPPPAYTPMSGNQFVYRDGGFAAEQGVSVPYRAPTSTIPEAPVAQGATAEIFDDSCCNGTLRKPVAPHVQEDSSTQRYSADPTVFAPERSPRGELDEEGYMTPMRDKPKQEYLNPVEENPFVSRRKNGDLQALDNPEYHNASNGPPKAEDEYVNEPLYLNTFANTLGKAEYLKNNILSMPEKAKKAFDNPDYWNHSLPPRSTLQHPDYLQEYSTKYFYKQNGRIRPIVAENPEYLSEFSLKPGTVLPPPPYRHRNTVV
Assay [6] has as its target T2, Tyrosine-protein kinase JAK3 (Homo sapiens, UniProt P52333).
T2 sequence (P52333 whole entry): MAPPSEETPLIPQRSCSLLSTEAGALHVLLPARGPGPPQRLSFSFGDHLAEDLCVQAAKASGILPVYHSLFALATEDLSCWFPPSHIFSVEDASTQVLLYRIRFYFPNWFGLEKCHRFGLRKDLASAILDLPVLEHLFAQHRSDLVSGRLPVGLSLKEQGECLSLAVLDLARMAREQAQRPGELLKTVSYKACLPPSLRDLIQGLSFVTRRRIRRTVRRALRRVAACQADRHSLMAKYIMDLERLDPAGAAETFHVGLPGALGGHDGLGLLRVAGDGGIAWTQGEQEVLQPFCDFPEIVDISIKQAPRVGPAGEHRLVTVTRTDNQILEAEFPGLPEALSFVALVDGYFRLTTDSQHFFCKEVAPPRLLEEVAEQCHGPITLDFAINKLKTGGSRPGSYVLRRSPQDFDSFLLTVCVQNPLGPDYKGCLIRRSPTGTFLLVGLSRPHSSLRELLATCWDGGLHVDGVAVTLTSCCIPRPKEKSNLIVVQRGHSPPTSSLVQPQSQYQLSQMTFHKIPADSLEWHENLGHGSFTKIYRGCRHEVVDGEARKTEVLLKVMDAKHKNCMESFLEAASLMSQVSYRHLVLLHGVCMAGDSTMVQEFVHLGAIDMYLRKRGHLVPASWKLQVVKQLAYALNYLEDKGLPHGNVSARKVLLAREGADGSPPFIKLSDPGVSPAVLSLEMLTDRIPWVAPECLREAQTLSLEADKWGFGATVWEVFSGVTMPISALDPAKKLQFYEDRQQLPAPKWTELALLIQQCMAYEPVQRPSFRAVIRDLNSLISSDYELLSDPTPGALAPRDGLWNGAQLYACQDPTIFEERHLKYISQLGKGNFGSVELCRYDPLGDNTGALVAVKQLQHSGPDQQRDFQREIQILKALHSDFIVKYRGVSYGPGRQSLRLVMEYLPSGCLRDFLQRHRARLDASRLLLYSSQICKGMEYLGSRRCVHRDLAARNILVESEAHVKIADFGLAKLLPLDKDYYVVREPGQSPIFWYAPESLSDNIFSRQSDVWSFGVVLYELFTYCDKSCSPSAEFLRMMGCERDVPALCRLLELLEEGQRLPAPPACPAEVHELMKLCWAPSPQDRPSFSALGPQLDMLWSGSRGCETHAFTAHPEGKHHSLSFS
The assay is described as follows: Inhibition of JAK3.

Assay [7] concerns the target T3, Tyrosine-protein kinase ITK/TSK (Homo sapiens, UniProt Q08881).
T3 sequence (Q08881 whole entry): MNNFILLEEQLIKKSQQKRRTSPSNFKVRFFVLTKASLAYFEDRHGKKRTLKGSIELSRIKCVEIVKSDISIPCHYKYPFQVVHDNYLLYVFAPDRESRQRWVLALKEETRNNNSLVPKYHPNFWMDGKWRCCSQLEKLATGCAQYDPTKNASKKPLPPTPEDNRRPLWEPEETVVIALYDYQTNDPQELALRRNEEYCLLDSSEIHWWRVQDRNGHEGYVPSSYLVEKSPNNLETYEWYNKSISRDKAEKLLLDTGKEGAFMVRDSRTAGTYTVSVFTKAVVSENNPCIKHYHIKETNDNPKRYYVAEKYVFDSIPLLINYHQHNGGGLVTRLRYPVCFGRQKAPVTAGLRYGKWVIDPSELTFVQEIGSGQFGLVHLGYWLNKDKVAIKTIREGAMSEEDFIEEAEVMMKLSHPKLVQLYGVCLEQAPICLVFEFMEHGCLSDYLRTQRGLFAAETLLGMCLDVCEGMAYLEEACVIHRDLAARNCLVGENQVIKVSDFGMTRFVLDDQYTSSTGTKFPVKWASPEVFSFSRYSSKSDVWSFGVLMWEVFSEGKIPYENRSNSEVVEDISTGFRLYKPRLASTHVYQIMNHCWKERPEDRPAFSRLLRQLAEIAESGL
The assay is described as follows: Inhibition of Itk.

pIC50: −log10 of the molar value.

The term pIC50 denotes −log10 of the IC50, conventionally taken in molar units. The low end stands for a high IC50, the high end for a low IC50.

For the molecule `C=CC(=O)Nc1ccc2ncnc(Nc3cccc(Br)c3)c2c1`, the pIC50 in assay [1] is below 5.00; in assay [2] it was 7.62; in assay [3], 5.23; in assay [4] it was 5.26; in assay [5] it was 7.92; in assay [6], 5.50. The same molecule had a pIC50 in assay [7] below 4.52.
`C=CC(=O)Nc1cc2c(Nc3ccc(F)c(Cl)c3)ncnc2cc1OCCCN1CCOCC1` [CANERTINIB] showed a pIC50 in assay [3] of 6.73.
